Laboratory results from PubChem BioAssay (NCI).
Where “and” joins values, the source holds several entries; their conditions need not be identical. Identical values can stand only once.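 Results reflect a 48-hour exposure of cells in 96-well plates to compound at five concentrations. Here, GI50 denotes the concentration required for 50% inhibition of growth. TGI: concentration producing complete growth inhibition.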

Legend:
Experiment in all cases: NCI-60 cell line screen, 48 h
[1] = tested on: NCI-H226 lung
[2] = tested on: PC-3 prostate
[3] = tested on: UACC-62 melanoma
[4] = tested on: SNB-19 CNS
[5] = tested on: MDA-N
[6] = tested on: OVCAR-4 ovarian
[7] = tested on: MALME-3M melanoma
[8] = tested on: EKVX NSCLC
[9] = tested on: KM12 colon
[10] = tested on: HCT-15 colon

Row | Compound | GI50 [1] | TGI [1] | GI50 [2] | TGI [2] [µM] | GI50 [3] | TGI [3] [µM] | TGI [4] [µM] | TGI [5] [µM] | TGI [6] [µM] | TGI [7] [µM] | TGI [8] [µM] | TGI [9] | GI50 [10] | TGI [10] [µM]
1 | C=CCN1C(=O)/C(=C/c2ccc(C)cc2)N=C1SC1OC(COC(C)=O)C(OC(C)=O)C(OC(C)=O)C1OC(C)=O (centres undefined) | > 100 µM and 20.9 µM | > 100 µM and 85.6 µM | > 100 µM and 34.2 µM | > 100 | 3.83 µM and 37.1 µM | > 100 | > 100 | > 100 | 64.1 | > 100 | > 100 | > 100 µM and 17.9 µM | > 100 µM and 29.7 µM | > 100
2 | COc1ccc2c(c1)c(=O)c1c(NCCNCCO)ccc3c(=O)n(CCN(C)C)c(=O)n2c31 |  | 0.912 µM |  | 0.624 |  | 0.293 | 0.997 | 0.279 | 0.511 | 0.449 | 0.819 | 0.831 µM |  | 6.39
3 | CC(C)[Si](OC/C(=C/COC(C)(C)C)[C@H]1CC=C(C(=O)c2ccccc2N2CN(C)C(=O)N(C)C2)C1)(C(C)C)C(C)C |  | 28.9 µM |  | 18.1 |  | 23.3 | 24.9 | 4.62 | 39.3 | 21.4 | 30.3 | 44.4 µM |  | 27.1
4 | CN(C)c1ccc(Cc2cc3c(O)ccc(O)c3cc(Cc3ccc(N(C)C)cc3)c2=O)cc1 |  | 56.2 µM |  | 32.7 |  | 65.9 | > 63.4 | 41 | 39.5 | 45.4 | 44.2 | 40 µM |  | 58
5 | C=CC(=O)N1C/C(=C\c2ccc(Cl)cc2)C(=O)/C(=C/c2ccc(Cl)cc2)C1 |  | 3.03 µM |  | 0.751 |  | 1.02 | 2.67 | 0.515 | 1.22 | 3.84 | 4.72 | 0.866 µM |  | 0.497
6 | O=C(OCC1OC(n2nc(Cn3nnc(-c4cccnc4)n3)n(-c3cccc4ccccc34)c2=S)C(OC(=O)c2ccccc2)C1OC(=O)c1ccccc1)c1ccccc1 (centres undefined) |  | > 100 µM |  | > 100 |  | > 100 | > 100 | > 100 | > 100 | > 100 | > 100 | > 100 µM |  | > 100
7 | N#Cc1c(-c2ccccc2)c2c([nH]c1=O)-c1cc([N+](=O)[O-])ccc1CCC2 |  | 71.6 µM |  | > 100 |  | 37.3 | > 100 | > 100 | > 100 | > 100 | 88.5 | > 100 µM |  | 61
8 | c1ccc([P+](CCCCCCCC[P+](c2ccccc2)(c2ccccc2)c2ccccc2)(c2ccccc2)c2ccccc2)cc1 |  | > 100 µM |  | > 30.8 |  | > 94.4 | > 100 | > 100 | > 100 | > 100 | > 100 | 49.5 µM |  | > 100
9 | C[n+]1c(/C=C/c2ccc(O)c3ncccc23)[se]c2ccccc21 |  | 30.5 µM |  | 12.7 |  | 18.3 | 51.3 | 25.4 | > 47 | 20.3 | 28 | 25.2 µM |  | 17.6
10 | CC(=O)n1nc(-c2ccccc2)n(/N=C/c2ccc([N+](=O)[O-])o2)c1=O |  | > 19.8 µM |  | 30.9 |  | 23.8 | 36.9 | 3.92 | 35.6 | 16.5 | > 49.1 | 36.4 µM |  | 15.4
11 | COP(=O)(OC)C(Nc1ccc(Cc2ccc(NC(c3ccco3)P(=O)(OC)OC)cc2)cc1)c1ccco1 (centres undefined) |  | > 100 µM |  | > 100 |  | 50.5 | 71.3 | > 100 | > 100 | > 100 | 94.4 | > 100 µM |  | > 100
12 | CC(C)N1CN(c2ccccc2)C2(CCN(CCCC(=O)c3ccc(F)cc3)CC2)C1=O |  | 46.4 µM |  | > 71 |  | 38.7 | > 56 | 36.6 | > 76 | 29.6 | > 100 | 42.1 µM |  | 40.5
13 | COC(=O)N1N=C(c2ccccc2)C1c1ccccc1 (centres undefined) |  | 77.1 µM |  | > 100 |  | 63.3 | > 100 | > 100 | > 100 | > 100 | > 100 | > 100 µM |  | > 100
14 | S=C1NC2=C(CSC/C2=C\c2ccccc2)C(c2ccccc2)N1 (centres undefined) |  | > 100 µM |  | > 100 |  | > 100 | > 100 | > 100 | > 100 | 99.4 | > 100 | > 100 µM |  | > 100
15 | Nc1nc(Nc2ccccc2)sc1C(=O)c1ccco1 |  | 55.3 µM |  | > 100 |  | 40.1 | 50.9 | 33.9 | 50.5 | 57.1 | 38.7 | 23.5 µM |  | 50.9
16 | Cc1cc(C)nc(NS(=O)(=O)c2ccc(NC(=O)c3cccc4c(NNc5ccc(S(=O)(=O)N=C(N)N)cc5)c5ccccc5nc34)cc2)n1 |  | > 50 µM |  | > 50 |  | > 50 | > 50 | > 50 | > 50 | > 50 | > 50 | > 50 µM |  | > 50

Row | Compound | GI50 [1] | TGI [1] | GI50 [2] | TGI [2] [µM] | GI50 [3] | TGI [3] [µM] | TGI [4] [µM] | TGI [5] [µM] | TGI [6] [µM] | TGI [7] [µM] | TGI [8] [µM] | TGI [9] | GI50 [10] | TGI [10] [µM]
17 | Cc1cc(NS(=O)(=O)c2ccc(NC(NC(=O)C(C(F)(F)F)C(F)(F)F)(C(F)(F)F)C(F)(F)F)cc2)no1 |  | > 100 µM |  | > 100 |  | > 100 | > 100 | > 100 | > 100 | > 100 | > 100 | > 100 µM |  | > 100
18 | Cc1cc(O)c(-c2cc(O)c(C)cc2O)cc1O |  | 46.4 µM |  | 27.6 |  | 29.8 | 40.2 | 22.9 | 20.9 | 25.5 | 28.7 | 27.5 µM |  | > 51.1
19 | COC1C(O)C(O[C@H]2CC[C@@]3(C)C(CC[C@@H]4[C@@H]3CC[C@]3(C)[C@@H](C(C)OC5OC(CO)C(O)C(O)C5O)CC[C@]43O)C2)OC(C)C1OC1OC(CO)C(O)C(O)C1O (some centres undefined) |  | > 100 µM |  | > 100 |  | > 100 | > 100 | > 100 | > 100 | > 100 | > 100 | > 100 µM |  | > 100
20 | Cc1c(-c2ccccc2)[nH]n(C2=NCCN2)c1=O |  | > 100 µM |  | > 100 |  | > 100 | > 100 | > 100 | > 100 | > 100 | > 100 | > 100 µM |  | > 100
21 | O=C1C(C(O)(C(F)(F)F)C(F)(F)F)CCC1C(O)(C(F)(F)F)C(F)(F)F (centres undefined) |  | 4.44 µM |  | 98.3 |  | > 100 | > 100 | > 81.8 | > 100 | 17.9 | > 100 | 37.3 µM |  | > 100
22 | O=[N+]([O-])c1cccc2c(N=Nc3ccc4ccccc4c3O)c(O)cc(S(=O)(=O)O)c12 |  | > 100 µM |  | > 100 |  | > 100 | > 100 | > 100 | > 100 | 80.6 | > 100 | > 100 µM |  | > 100
23 | O=S1SC(=S)C2C=CC=CC21 (centres undefined) |  | > 100 µM |  | > 100 |  | > 100 | > 100 | > 100 | > 100 | > 100 | > 100 | > 100 µM |  | > 100
24 | O=C1c2cccc(O)c2C(=O)c2c(OC3OC(CO)C(O)C(O)C3O)cccc21 (centres undefined) |  | > 100 µM |  | 82 |  | > 100 | > 100 | > 100 | 32.1 | 20.9 | > 100 | > 100 µM |  | 94.9
25 | Clc1ccc(/C(=C\c2ccccc2)Cn2ccnc2)cc1 |  | 33.1 µM |  | 31.9 |  | 35.8 | 49.4 | 39 | > 100 | 27 | 68.4 | 20.7 µM |  | 39.1
26 | CCOP(=O)(OCC)OC1CC(n2cc(C)c(=O)n(C)c2=O)OC1CO[Si](C)(C)C(C)(C)C (centres undefined) |  | > 100 µM |  | > 100 |  | > 100 | > 100 | > 100 | > 100 | > 100 | 68.4 | > 100 µM |  | > 100
27 | COc1cc2[nH]c(-c3ccccc3)cc(=O)c2c(OC)c1OC |  | > 100 µM |  | > 100 |  | > 100 | > 100 | > 100 | > 100 | > 100 | > 100 | > 100 µM |  | > 100
28 | COc1nc2c(N3CCCC3)nc(N3CCNCC3)nc2nc1NCc1ccccc1 |  | 7.1 µM |  | 6.42 |  | 3.29 | 4.19 | 2.45 | 11.5 | 3.55 | 10.8 | 4.68 µM |  | 3.82
29 | COc1ccc([C@H]2C=[N+]([O-])O[C@H](OC3CCCC3)[C@@H]2OC(C)=O)cc1OC |  | > 100 µM |  | > 100 |  | 77.7 | > 100 | 69.2 | > 100 | 51.2 | 50.2 | 72.4 µM |  | 78.5
30 | COc1ccc(N2C(=O)C3c4[nH]c5ccccc5c4C4CCCCCCCCCC4C3C2=O)cc1 (centres undefined) |  | > 10 µM |  | > 10 |  | > 10 | > 10 | > 10 | > 10 | > 10 | > 10 | > 10 µM |  | > 10
31 | CCN(CC)CCO/N=C1\CC[C@H]2[C@@H]3CCc4cc(OC)ccc4[C@H]3CC[C@]12C |  | 4.69 µM |  | 9.29 |  | 2.02 | 25 | 3.66 | 22.4 | 3.28 | 9.76 | 5.86 µM |  | 1.94
32 | COc1ccc(Oc2cnn(C(Br)(Br)C(C)=O)c(=O)c2Br)cc1 |  | 46.6 µM |  | 27.4 |  | 29.6 | 56.8 | 22.9 | 32.6 | 32.2 | 36.1 | 31.4 µM |  | 39.8
